Experimental data: PubChem BioAssay (NCI)
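Protocol summary: plate cells (96-well), add compound at 5 concentrations, incubate 48 h, interpolate endpoints linearly. GI50 marks 50% less growth. At the TGI there is no net growth.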

How the values were obtained:
Assay in all cases: NCI-60 cell line screen, 48 h
[1] = test system: SK-MEL-2 melanoma
[2] = test system: MDA-MB-231 breast
[3] = test system: HL-60(TB) leukemia
[4] = test system: EKVX NSCLC
[5] = test system: 786-0 renal
[6] = test system: SF-295 CNS
[7] = test system: ACHN renal
[8] = test system: SF-539 CNS
[9] = test system: SK-MEL-28 melanoma
[10] = test system: NCI-H522 lung
[11] = test system: NCI-H460 lung
[12] = test system: RPMI-8226 leukemia
[13] = test system: UO-31 renal
[14] = test system: OVCAR-4 ovarian
[15] = test system: NCI-H226 lung
[16] = test system: SNB-19 CNS
[17] = test system: HCT-116 colon
[18] = test system: U251 CNS
[19] = test system: NCI/ADR-RES ovarian
[20] = test system: NCI-H23 lung
[21] = test system: DU-145 prostate
[22] = test system: SN12C renal
[23] = test system: OVCAR-8 ovarian
[24] = test system: MOLT-4 leukemia
[25] = test system: BT-549 breast
[26] = test system: M14 melanoma
[27] = test system: SNB-75 CNS
[28] = test system: CCRF-CEM leukemia
[29] = test system: SK-MEL-5 melanoma
[30] = test system: SR leukemia
[31] = test system: CAKI-1 renal
[32] = test system: KM12 colon
[33] = test system: A498 renal
[34] = test system: MCF7 breast
[35] = test system: SF-268 CNS
[36] = test system: PC-3 prostate
[37] = test system: OVCAR-3 ovarian
[38] = test system: UACC-257 melanoma
[39] = test system: K-562 leukemia
[40] = test system: SK-OV-3 ovarian
[41] = test system: TK-10 renal
[42] = test system: LOX IMVI melanoma
[43] = test system: SW-620 colon
[44] = test system: HCC-2998 colon
[45] = test system: HCT-15 colon
[46] = test system: MDA-MB-435
[47] = test system: A549 NSCLC
[48] = test system: UACC-62 melanoma
[49] = test system: OVCAR-5 ovarian
[50] = test system: RXF 393 renal
[51] = test system: IGROV1 ovarian
[52] = test system: HT29 colon
[53] = test system: HS 578T breast
[54] = test system: HOP-92 NSCLC
[55] = test system: T-47D breast
[56] = test system: COLO 205 colon
[57] = test system: HOP-62 NSCLC
[58] = test system: MALME-3M melanoma

## COc1ccc(S(=O)(=O)n2c3ccccc3n3ncc(-c4nnc(C)o4)c23)cc1
[1]
  GI50: 0.815 µM
  TGI: 82.1 µM
[2]
  GI50: 1.86 µM
  TGI: 39.6 µM
[3]
  GI50: 0.273 µM
  TGI: 0.841 µM
[4]
  GI50: 1.12 µM
  TGI: > 100 µM
[5]
  GI50: 0.688 µM
  TGI: > 71.3 µM
[6]
  GI50: 0.37 µM
  TGI: 14.4 µM
[7]
  GI50: 0.567 µM
  TGI: > 100 µM
[8]
  GI50: 0.361 µM
  TGI: 7.92 µM
[9]
  GI50: 11.3 µM
  TGI: 34.8 µM
[10]
  GI50: 0.42 µM
  TGI: > 73.6 µM
[11]
  GI50: 0.425 µM
  TGI: > 48.3 µM
[12]
  GI50: 0.527 µM
  TGI: 24.7 µM
[13]
  GI50: 0.474 µM
  TGI: 21.7 µM
[14]
  GI50: 12.7 µM
  TGI: > 100 µM
[15]
  GI50: 10.8 µM
  TGI: > 69.2 µM
[16]
  GI50: 0.766 µM
  TGI: > 100 µM
[17]
  GI50: 0.387 µM
  TGI: 24 µM
[18]
  GI50: 0.473 µM
  TGI: > 65.5 µM
[19]
  GI50: 0.391 µM
  TGI: > 48.1 µM
[20]
  GI50: 0.786 µM
  TGI: 75.8 µM
[21]
  GI50: 0.916 µM
  TGI: > 75.3 µM
[22]
  GI50: 0.73 µM
  TGI: 39.6 µM
[23]
  GI50: 1.27 µM
  TGI: > 100 µM
[24]
  GI50: 0.502 µM
  TGI: > 100 µM
[25]
  GI50: 0.516 µM
  TGI: 20 µM
[26]
  GI50: 0.373 µM
  TGI: 18.7 µM
[27]
  GI50: 0.211 µM
  TGI: 0.937 µM
[28]
  GI50: 0.431 µM
  TGI: > 100 µM
[29]
  GI50: 0.401 µM
  TGI: 15 µM
[30]
  GI50: 0.77 µM
  TGI: > 100 µM
[31]
  GI50: 0.449 µM
  TGI: > 100 µM
[32]
  GI50: 0.465 µM
  TGI: 19.9 µM
[33]
  GI50: 0.298 µM
  TGI: 1.9 µM
[34]
  GI50: 0.397 µM
  TGI: > 69.8 µM
[35]
  GI50: 3.11 µM
  TGI: > 74.1 µM
[36]
  GI50: 0.478 µM
  TGI: > 100 µM
[37]
  GI50: 0.342 µM
  TGI: 2.45 µM
[38]
  GI50: 22.4 µM
  TGI: > 87 µM
[39]
  GI50: 0.314 µM
  TGI: > 100 µM
[40]
  GI50: 0.598 µM
  TGI: > 100 µM
[41]
  GI50: 25.4 µM
  TGI: > 100 µM
[42]
  GI50: 0.561 µM
  TGI: 26.1 µM
[43]
  GI50: 0.394 µM
  TGI: > 100 µM
[44]
  GI50: 1.38 µM
  TGI: 16.8 µM
[45]
  GI50: 0.424 µM
  TGI: > 75.8 µM
[46]
  GI50: 0.339 µM
  TGI: > 100 µM
[47]
  GI50: 0.768 µM
  TGI: > 100 µM
[48]
  GI50: 0.609 µM
  TGI: 32.5 µM
[49]
  GI50: 2.1 µM
  TGI: > 100 µM
[50]
  GI50: 0.319 µM
  TGI: 3.97 µM
[51]
  GI50: 0.634 µM
  TGI: > 67.1 µM
[52]
  GI50: 0.381 µM
  TGI: > 100 µM
[53]
  GI50: 0.394 µM
  TGI: > 100 µM
[54]
  GI50: 0.365 µM
  TGI: 57.3 µM
[55]
  GI50: 0.584 µM
  TGI: 62.4 µM
[56]
  GI50: 0.376 µM
  TGI: 17.1 µM
[57]
  GI50: 0.566 µM
  TGI: > 85.5 µM

## CCC(=O)OC1=CN2C(=NC(c3ccc(N)cc3)=CC2c2cc(OC)c(OC)c(OC)c2)S1 (stereo unspecified)
[1]
  GI50: 5.93 µM
  TGI: 20.4 µM
[2]
  GI50: 4.39 µM
  TGI: 21.3 µM
[3]
  GI50: 3.01 µM
  TGI: > 100 µM
[5]
  GI50: 4.57 µM
  TGI: 23.4 µM
[6]
  GI50: 3.48 µM
  TGI: 13.1 µM
[7]
  GI50: 3.35 µM
  TGI: 18.2 µM
[8]
  GI50: 2.12 µM
  TGI: 6.01 µM
[9]
  GI50: 5.54 µM
  TGI: 18.3 µM
[10]
  GI50: 3.49 µM
  TGI: 12.6 µM
[58]
  GI50: 4 µM
  TGI: 16.3 µM
[11]
  GI50: 2.61 µM
  TGI: 8.52 µM
[12]
  GI50: 2.44 µM
  TGI: 10 µM
[13]
  GI50: 3.15 µM
  TGI: 13.6 µM
[14]
  GI50: 4.14 µM
  TGI: 31.9 µM
[15]
  GI50: 7.47 µM
  TGI: > 100 µM
[16]
  GI50: 3.59 µM
  TGI: 16.4 µM
[17]
  GI50: 3.51 µM
  TGI: 13.1 µM
[18]
  GI50: 3.49 µM
  TGI: 13.8 µM
[19]
  GI50: 3.73 µM
  TGI: > 100 µM
[20]
  GI50: 5.82 µM
  TGI: 35.6 µM
[21]
  GI50: 3.58 µM
  TGI: 13.1 µM
[22]
  GI50: 4.34 µM
  TGI: 22.2 µM
[23]
  GI50: 3.39 µM
  TGI: 22.3 µM
[24]
  GI50: 3.89 µM
  TGI: 64.7 µM
[25]
  GI50: 4.57 µM
  TGI: 19.4 µM
[26]
  GI50: 4.18 µM
  TGI: 17.6 µM
[27]
  GI50: 5.12 µM
  TGI: 23.3 µM
[28]
  GI50: 2.41 µM
  TGI: 9.13 µM
[29]
  GI50: 2.89 µM
  TGI: 12 µM
[31]
  GI50: 2.91 µM
  TGI: 11.2 µM
[32]
  GI50: 3.48 µM
  TGI: 11.7 µM
[33]
  GI50: 5.3 µM
  TGI: 20.8 µM
[34]
  GI50: 2.86 µM
  TGI: 14.4 µM
[35]
  GI50: 3.57 µM
  TGI: 14.4 µM
[36]
  GI50: 6.04 µM
  TGI: 42.9 µM
[37]
  GI50: 2.47 µM
  TGI: 5.56 µM
[38]
  GI50: 5.96 µM
  TGI: 19.9 µM
[39]
  GI50: 3.47 µM
  TGI: > 100 µM
[40]
  GI50: 3.45 µM
  TGI: 13 µM
[41]
  GI50: 4 µM
  TGI: 16.1 µM
[42]
  GI50: 3.45 µM
  TGI: 13 µM
[43]
  GI50: 2.89 µM
  TGI: 10.7 µM
[44]
  GI50: 4.47 µM
  TGI: 15.7 µM
[45]
  GI50: 2.47 µM
  TGI: 29.6 µM
[46]
  GI50: 2.98 µM
  TGI: 14.1 µM
[47]
  GI50: 3.22 µM
  TGI: 26 µM
[48]
  GI50: 3.03 µM
  TGI: 11.8 µM
[49]
  GI50: 4.04 µM
  TGI: 17.1 µM
[50]
  GI50: 2.3 µM
  TGI: 7.98 µM
[51]
  GI50: 2.31 µM
  TGI: 6.63 µM
[52]
  GI50: 3.82 µM
  TGI: 14.2 µM
[53]
  GI50: 3.6 µM
  TGI: > 100 µM
[54]
  GI50: 1.76 µM
  TGI: 7.37 µM
[55]
  GI50: 4.01 µM
  TGI: 30.8 µM
[56]
  GI50: 3.72 µM
  TGI: 10.7 µM
[57]
  GI50: 4.79 µM
  TGI: 15.1 µM
